# Data taken from US12612360B2 (Sanofi, priority 2020, dated 2026).
# Target: T1, ERα (Homo sapiens, UniProt P03372)
# T1 construct: host or cells: MCF7
# T1 sequence (P03372 1-595): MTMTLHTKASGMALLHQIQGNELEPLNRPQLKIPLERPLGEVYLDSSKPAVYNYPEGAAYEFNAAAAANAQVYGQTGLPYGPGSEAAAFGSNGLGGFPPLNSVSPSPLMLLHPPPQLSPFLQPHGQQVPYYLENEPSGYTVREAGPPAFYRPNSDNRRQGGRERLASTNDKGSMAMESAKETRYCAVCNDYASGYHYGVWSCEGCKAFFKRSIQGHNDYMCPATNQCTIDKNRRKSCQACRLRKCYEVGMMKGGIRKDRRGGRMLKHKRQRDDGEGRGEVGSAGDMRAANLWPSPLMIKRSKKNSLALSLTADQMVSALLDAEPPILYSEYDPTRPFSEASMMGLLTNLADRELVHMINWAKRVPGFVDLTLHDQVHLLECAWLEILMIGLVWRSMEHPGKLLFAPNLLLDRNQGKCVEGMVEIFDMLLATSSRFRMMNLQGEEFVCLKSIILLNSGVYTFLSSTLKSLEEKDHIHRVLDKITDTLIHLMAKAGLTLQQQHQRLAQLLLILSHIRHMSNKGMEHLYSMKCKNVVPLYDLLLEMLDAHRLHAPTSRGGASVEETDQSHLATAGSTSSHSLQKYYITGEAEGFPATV
# Test: Estrogen receptor degradation activity: breast cancer cell ERα in cell western assay (MCF7 cells)
# Assay type: cell-based
# Conditions: for % Degradation At 0.3 μM: 4 hours, relative to fulvestrant 0.1 μM positive control; for DC50: 4 hours post compound addition, concentration which degrades 50% of the estrogen receptor, read-out: Degradation IC50
# Method in brief: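 In-cell western readout: ERα immunofluorescence (Alexa 488) normalised to DNA signal (Syto-64) after formalin fixation. Compounds dosed for 4 h on MCF7 cells in stripped-serum, phenol-red-free medium over nine 1:5 steps, 0.3 to […] final; fulvestrant 0.1 μM control. IC50 in nM for 50% ERα degradation.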
% Degradation At 0.3 μM,DC50,Compound
97%,3.1 nM,"Cc1cc(F)ccc1C1=C(c2ccc(C=C3CN(CCCF)C3)cc2C#N)c2ccc(C(=O)O)cc2CCC1 [Example 139, 9-(2-cyano-4-((1-(3-fluoropropyl)azetidin-3-ylidene)methyl)phenyl)-8-(4-fluoro-2-methylphenyl)-6,7-dihydro-5H-benzo[7]annulene-3-carboxylic acid]"
92%,0.5 nM,"O=C(O)c1ccc2c(c1)CCCC(c1cc(C(F)(F)F)ccc1Cl)=C2c1ccc(C=C2CN(CCCF)C2)cc1 [Example 140, 8-(2-chloro-5-(trifluoromethyl)phenyl)-9-(4-((1-(3-fluoropropyl)azetidin-3-ylidene)methyl)phenyl)-6,7-dihydro-5H-benzo[7]annulene-3-carboxylic acid]"
88%,0.4 nM,"O=C(O)c1ccc2c(c1)CCCC(c1ccc(C3CC3)cc1C(F)(F)F)=C2c1ccc(C=C2CN(CCCF)C2)cc1 [Example 141, 8-(4-cyclopropyl-2-(trifluoromethyl)phenyl)-9-(4-((1-(3-fluoropropyl)azetidin-3-ylidene)methyl)phenyl)-6,7-dihydro-5H-benzo[7]annulene-3-carboxylic acid]"
96%,0.3 nM,"O=C([O-])c1ccc2c(c1)CCCC(c1ccc(F)cc1F)=C2c1ccc(C=C2CN(CCCF)C2)cc1F.[Na+] [Example 142, Sodium 8-(2,4-difluorophenyl)-9-(2-fluoro-4-((1-(3-fluoropropyl)azetidin-3-ylidene)methyl)phenyl)-6,7-dihydro-5H-benzo[7]annulene-3-carboxylate]"
81%,3.7 nM,"O=C(O)c1ccc2c(c1)CCCC(c1cc(Cl)cc(C(F)(F)F)c1)=C2c1ccc(C=C2CN(CCCF)C2)cc1 [Example 143, 8-(3-chloro-5-(trifluoromethyl)phenyl)-9-(4-((1-(3-fluoropropyl)azetidin-3-ylidene)methyl)phenyl)-6,7-dihydro-5H-benzo[7]annulene-3-carboxylic acid]"
90%,0.4 nM,"Cc1ccc(C2=C(c3ccc(C=C4CN(CCCF)C4)cc3)c3ccc(C(=O)O)cc3CCC2)cc1C(F)(F)F [Example 144, 9-(4-((1-(3-fluoropropyl)azetidin-3-ylidene)methyl)phenyl)-8-(4-methyl-3-(trifluoromethyl)phenyl)-6,7-dihydro-5H-benzo[7]annulene-3-carboxylic acid]"
85%,4.3 nM,"Cc1cc(C2=C(c3ccc(C=C4CN(CCCF)C4)cc3)c3ccc(C(=O)O)cc3CCC2)cc(C(F)(F)F)c1 [Example 145, 9-(4-((1-(3-fluoropropyl)azetidin-3-ylidene)methyl)phenyl)-8-(3-methyl-5-(trifluoromethyl)phenyl)-6,7-dihydro-5H-benzo[7]annulene-3-carboxylic acid]"
88%,1.4 nM,"O=C(O)c1ccc2c(c1)CCCC(c1ccc(C(F)(F)F)c(C(F)(F)F)c1)=C2c1ccc(C=C2CN(CCCF)C2)cc1 [Example 146, 8-(3,4-bis(trifluoromethyl)phenyl)-9-(4-((1-(3-fluoropropyl)azetidin-3-ylidene)methyl)phenyl)-6,7-dihydro-5H-benzo[7]annulene-3-carboxylic acid]"
90%,0.3 nM,"O=C(O)c1ccc2c(c1)CCCC(c1cccc(C(F)(F)F)c1Cl)=C2c1ccc(C=C2CN(CCCF)C2)cc1 [Example 147, 8-(2-chloro-3-(trifluoromethyl)phenyl)-9-(4-((1-(3-fluoropropyl)azetidin-3-ylidene)methyl)phenyl)-6,7-dihydro-5H-benzo[7]annulene-3-carboxylic acid]"
90%,1.2 nM,"COc1ccc(C2=C(c3ccc(C=C4CN(CCCF)C4)cc3)c3ccc(C(=O)O)cc3CCC2)cc1C(F)(F)F [Example 148, 9-(4-((1-(3-fluoropropyl)azetidin-3-ylidene)methyl)phenyl)-8-(4-methoxy-3-(trifluoromethyl)phenyl)-6,7-dihydro-5H-benzo[7]annulene-3-carboxylic acid]"
87%,0.4 nM,"CCOc1ccc(C2=C(c3ccc(C=C4CN(CCCF)C4)cc3)c3ccc(C(=O)O)cc3CCC2)cc1C(F)(F)F [Example 149, 8-(4-ethoxy-3-(trifluoromethyl)phenyl)-9-(4-((1-(3-fluoropropyl)azetidin-3-ylidene)methyl)phenyl)-6,7-dihydro-5H-benzo[7]annulene-3-carboxylic acid]"
88%,1.7 nM,COc1cc(C2=C(c3ccc(C=C4CN(CCCF)C4)cc3)c3ccc(C(=O)O)cc3CCC2)cc(C(F)(F)F)c1 [Example 150]
90%,0.2 nM,"O=C(O)c1ccc2c(c1)CCCC(c1cc(C(F)(F)F)ccc1C(F)(F)F)=C2c1ccc(C=C2CN(CCCF)C2)cc1 [Example 151, 8-(2,5-bis(trifluoromethyl)phenyl)-9-(4-((1-(3-fluoropropyl)azetidin-3-ylidene)methyl)phenyl)-6,7-dihydro-5H-benzo[7]annulene-3-carboxylic acid]"
93%,0.2 nM,"Cc1cc(F)ccc1C1=C(c2ccc(C=C3CN(CCCF)C3)c(F)c2F)c2ccc(C(=O)O)cc2CCC1 [Example 152, 9-(2,3-difluoro-4-((1-(3-fluoropropyl)azetidin-3-ylidene)methyl)phenyl)-8-(4-fluoro-2-methylphenyl)-6,7-dihydro-5H-benzo[7]annulene-3-carboxylic acid]"
92%,0.5 nM,"O=C(O)c1ccc2c(c1)CCCC(c1cc(F)ccc1C(F)(F)F)=C2c1ccc(C=C2CN(CCCF)C2)cc1 [Example 153, 8-(5-fluoro-2-(trifluoromethyl)phenyl)-9-(4-((1-(3-fluoropropyl)azetidin-3-ylidene)methyl)phenyl)-6,7-dihydro-5H-benzo[7]annulene-3-carboxylic acid]"
92%,0.4 nM,"O=C(O)c1ccc2c(c1)CCCC(c1ccc(F)c(C(F)(F)F)c1)=C2c1ccc(C=C2CN(CCCF)C2)cc1 [Example 154, 8-(4-fluoro-3-(trifluoromethyl)phenyl)-9-(4-((1-(3-fluoropropyl)azetidin-3-ylidene)methyl)phenyl)-6,7-dihydro-5H-benzo[7]annulene-3-carboxylic acid]"
91%,0.3 nM,"O=C(O)c1ccc2c(c1)CCCC(c1cc(F)cc(C(F)(F)F)c1)=C2c1ccc(C=C2CN(CCCF)C2)cc1 [Example 155, 8-(3-fluoro-5-(trifluoromethyl)phenyl)-9-(4-((1-(3-fluoropropyl)azetidin-3-ylidene)methyl)phenyl)-6,7-dihydro-5H-benzo[7]annulene-3-carboxylic acid]"
89%,0.6 nM,"COc1cc(C2=C(c3ccc(C=C4CN(CCCF)C4)cc3)c3ccc(C(=O)O)cc3CCC2)c(F)cn1 [Example 156, 8-(5-fluoro-2-methoxypyridin-4-yl)-9-(4-((1-(3-fluoropropyl)azetidin-3-ylidene)methyl)phenyl)-6,7-dihydro-5H-benzo[7]annulene-3-carboxylic acid]"
88%,3.1 nM,"Cc1cc(F)ccc1C1=C(c2ccc(C=C3CN(CCCF)C3)c(C(F)(F)F)c2)c2ccc(C(=O)O)cc2CCC1 [Example 157, 8-(4-fluoro-2-methylphenyl)-9-(4-((1-(3-fluoropropyl)azetidin-3-ylidene)methyl)-3-(trifluoromethyl)phenyl)-6,7-dihydro-5H-benzo[7]annulene-3-carboxylic acid]"
94%,0.4 nM,"O=C(O)c1ccc2c(c1)CCCC(c1ccc(Cl)cc1Cl)=C2c1ncc(C=C2CN(CCCF)C2)cc1F [Example 158, 8-(2,4-Dichlorophenyl)-9-(3-fluoro-5-((1-(3-fluoropropyl)azetidin-3-ylidene)methyl)pyridin-2-yl)-6,7-dihydro-5H-benzo[7]annulene-3-carboxylic acid]"
97%,20.4 nM,"O=C(O)c1ccc2c(c1)CCCC(c1ccc(Cl)cc1Cl)=C2c1ccc(C=C2CN(CCCF)C2)cn1 [Example 159, 8-(2,4-Dichlorophenyl)-9-(5-((1-(3-fluoropropyl)azetidin-3-ylidene)methyl)pyridin-2-yl)-6,7-dihydro-5H-benzo[7]annulene-3-carboxylic acid]"
93%,0.6 nM,"O=C(O)c1ccc2c(c1)CCCC(c1c(F)ccc3c1CCC3)=C2c1ccc(C=C2CN(CCC(F)F)C2)cc1 [Example 160, 9-(4-((1-(3,3-difluoropropyl)azetidin-3-ylidene)methyl)phenyl)-8-(5-fluoro-2,3-dihydro-1H-inden-4-yl)-6,7-dihydro-5H-benzo[7]annulene-3-carboxylic acid]"
